Consider nine compounds from ChEMBL document CHEMBL1201862, “PubChem BioAssay data set” (2004).

Calls of active or inactive are those of the source. Some results are limits rather than exact numbers.

A word on the IC50: it is the midpoint of a concentration-inhibition curve. The term AC50 denotes the concentration giving half of the maximal activity seen. The term EC50 denotes the concentration that produces a half-maximal response.

Holding throughout (assay type): functional
The target of one test is T1, Coagulation factor XII (Homo sapiens, UniProt P00748).
T1 sequence (P00748 whole entry): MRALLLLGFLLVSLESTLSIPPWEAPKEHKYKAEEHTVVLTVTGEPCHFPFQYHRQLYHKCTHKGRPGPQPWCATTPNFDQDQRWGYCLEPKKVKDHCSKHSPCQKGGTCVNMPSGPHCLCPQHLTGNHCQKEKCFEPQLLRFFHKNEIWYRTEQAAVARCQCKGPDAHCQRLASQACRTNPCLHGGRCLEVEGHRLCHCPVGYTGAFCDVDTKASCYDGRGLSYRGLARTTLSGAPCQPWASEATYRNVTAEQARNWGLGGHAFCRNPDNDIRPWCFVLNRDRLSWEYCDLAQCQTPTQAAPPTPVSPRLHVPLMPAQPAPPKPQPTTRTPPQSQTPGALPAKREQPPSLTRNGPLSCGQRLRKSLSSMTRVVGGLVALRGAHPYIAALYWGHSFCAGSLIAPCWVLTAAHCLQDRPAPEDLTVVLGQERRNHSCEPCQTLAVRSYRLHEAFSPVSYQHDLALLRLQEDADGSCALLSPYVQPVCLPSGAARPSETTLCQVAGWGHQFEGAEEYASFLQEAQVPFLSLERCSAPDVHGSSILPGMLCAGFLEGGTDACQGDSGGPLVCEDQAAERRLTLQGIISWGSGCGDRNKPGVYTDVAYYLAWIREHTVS
Description: activated coagulation factor XII inhibitor potency, concentration-effect curve, cell-free (AID 716).

Test [1] deals with T2, High affinity choline transporter 1 (Homo sapiens, UniProt Q9GZV3).
T2 sequence (Q9GZV3 whole entry): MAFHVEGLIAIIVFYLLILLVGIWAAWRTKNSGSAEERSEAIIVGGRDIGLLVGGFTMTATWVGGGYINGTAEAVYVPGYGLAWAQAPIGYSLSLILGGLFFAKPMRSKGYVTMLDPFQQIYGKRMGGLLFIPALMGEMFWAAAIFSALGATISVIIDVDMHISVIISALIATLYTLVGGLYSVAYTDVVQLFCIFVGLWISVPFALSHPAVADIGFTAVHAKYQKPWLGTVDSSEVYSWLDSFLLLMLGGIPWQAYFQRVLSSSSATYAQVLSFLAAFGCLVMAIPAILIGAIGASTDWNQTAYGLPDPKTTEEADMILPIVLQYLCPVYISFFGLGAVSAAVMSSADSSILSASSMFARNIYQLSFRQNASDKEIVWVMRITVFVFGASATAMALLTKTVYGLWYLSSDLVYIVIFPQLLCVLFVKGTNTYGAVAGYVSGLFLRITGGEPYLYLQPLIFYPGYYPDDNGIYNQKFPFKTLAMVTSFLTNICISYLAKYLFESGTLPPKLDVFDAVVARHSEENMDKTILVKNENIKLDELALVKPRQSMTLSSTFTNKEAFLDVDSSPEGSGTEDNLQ
Description: human choline transporter blockers, potency – cell-based, 5-point CRC, membrane potential dye, dose response (AID 504840).

For test [2], the target named is T3, Replicative DNA helicase DnaB (Mycobacterium tuberculosis, UniProt P9WMR3).
T3 sequence (P9WMR3 whole entry): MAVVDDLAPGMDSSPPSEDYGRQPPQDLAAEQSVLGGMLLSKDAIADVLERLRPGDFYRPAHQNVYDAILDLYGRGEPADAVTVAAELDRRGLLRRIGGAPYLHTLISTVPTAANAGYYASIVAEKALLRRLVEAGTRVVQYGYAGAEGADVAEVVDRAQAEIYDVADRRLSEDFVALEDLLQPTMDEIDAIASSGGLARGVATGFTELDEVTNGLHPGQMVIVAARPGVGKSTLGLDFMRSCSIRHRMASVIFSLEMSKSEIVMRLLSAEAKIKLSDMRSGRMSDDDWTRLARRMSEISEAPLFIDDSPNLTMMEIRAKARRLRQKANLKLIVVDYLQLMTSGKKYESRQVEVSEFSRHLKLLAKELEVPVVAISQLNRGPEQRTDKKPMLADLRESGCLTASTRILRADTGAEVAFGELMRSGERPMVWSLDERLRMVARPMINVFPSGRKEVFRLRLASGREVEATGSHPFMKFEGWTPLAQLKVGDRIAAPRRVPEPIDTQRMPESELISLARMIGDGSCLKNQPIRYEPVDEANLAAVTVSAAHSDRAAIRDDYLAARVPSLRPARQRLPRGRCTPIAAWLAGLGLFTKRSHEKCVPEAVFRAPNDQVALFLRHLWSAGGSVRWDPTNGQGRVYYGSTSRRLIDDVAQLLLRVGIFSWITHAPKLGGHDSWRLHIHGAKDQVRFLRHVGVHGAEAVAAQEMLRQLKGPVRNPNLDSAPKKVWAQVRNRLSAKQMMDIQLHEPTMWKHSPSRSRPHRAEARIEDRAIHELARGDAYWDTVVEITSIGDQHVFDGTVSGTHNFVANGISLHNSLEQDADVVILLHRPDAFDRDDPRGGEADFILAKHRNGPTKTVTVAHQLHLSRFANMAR
Description: DnaB intein splicing inhibitors, dose response, biochemical, cell-free fluorescence (AID 449749).

Another test has as its target T4, Protein RecA (Mycobacterium tuberculosis, UniProt P9WHJ3).
T4 sequence (P9WHJ3 whole entry): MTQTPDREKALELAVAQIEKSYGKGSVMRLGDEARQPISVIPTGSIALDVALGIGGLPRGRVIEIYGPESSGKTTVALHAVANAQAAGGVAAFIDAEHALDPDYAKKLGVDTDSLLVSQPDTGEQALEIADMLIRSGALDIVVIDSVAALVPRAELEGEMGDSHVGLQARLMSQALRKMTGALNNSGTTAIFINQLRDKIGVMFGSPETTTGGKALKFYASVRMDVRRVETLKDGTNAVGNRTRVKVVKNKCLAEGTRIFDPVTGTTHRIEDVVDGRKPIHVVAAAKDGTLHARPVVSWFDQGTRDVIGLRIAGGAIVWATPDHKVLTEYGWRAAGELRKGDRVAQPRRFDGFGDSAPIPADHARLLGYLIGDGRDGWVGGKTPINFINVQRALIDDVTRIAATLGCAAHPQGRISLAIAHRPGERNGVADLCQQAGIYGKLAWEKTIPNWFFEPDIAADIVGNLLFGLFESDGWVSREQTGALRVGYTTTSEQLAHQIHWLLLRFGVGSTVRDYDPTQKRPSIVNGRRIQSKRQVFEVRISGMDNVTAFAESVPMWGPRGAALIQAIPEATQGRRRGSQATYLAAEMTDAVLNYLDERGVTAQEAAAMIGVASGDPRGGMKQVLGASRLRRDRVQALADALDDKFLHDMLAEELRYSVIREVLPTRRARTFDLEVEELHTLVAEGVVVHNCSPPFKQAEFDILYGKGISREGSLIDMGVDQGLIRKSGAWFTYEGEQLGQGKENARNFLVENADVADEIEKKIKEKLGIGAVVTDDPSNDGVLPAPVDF
Put plainly: Fluorescence Cell-Free Homogeneous Dose Retest to Identify Inhibitors of RecA-Intein Splicing Activity. [Related pubchem assays (depositor defined):AID2097, AID2223, AID489010, AID492950].

The target in test [3] is T5, Ubiquitin-conjugating enzyme E2 N (Homo sapiens, UniProt P61088).
T5 sequence (P61088 whole entry): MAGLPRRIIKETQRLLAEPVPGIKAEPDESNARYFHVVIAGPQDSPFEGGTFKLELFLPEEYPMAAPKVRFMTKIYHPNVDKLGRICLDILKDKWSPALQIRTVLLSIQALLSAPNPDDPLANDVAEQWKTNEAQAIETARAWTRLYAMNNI

A further test addresses T6, Bcl-2-related protein A1 (Mus musculus, UniProt Q07440).
T6 sequence (Q07440 whole entry): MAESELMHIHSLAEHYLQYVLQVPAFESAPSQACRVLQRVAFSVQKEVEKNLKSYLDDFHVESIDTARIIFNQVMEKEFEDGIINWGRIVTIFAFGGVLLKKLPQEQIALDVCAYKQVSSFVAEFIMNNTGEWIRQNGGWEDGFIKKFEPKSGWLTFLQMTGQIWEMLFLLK

For test [4], the target named is T5, Ubiquitin-conjugating enzyme E2 N. This is another data set of the same source.
Test [5] addresses T7, Carboxy-terminal domain RNA polymerase II polypeptide A small phosphatase 1 (Homo sapiens, UniProt Q9GZU7).
T7 sequence (Q9GZU7 whole entry): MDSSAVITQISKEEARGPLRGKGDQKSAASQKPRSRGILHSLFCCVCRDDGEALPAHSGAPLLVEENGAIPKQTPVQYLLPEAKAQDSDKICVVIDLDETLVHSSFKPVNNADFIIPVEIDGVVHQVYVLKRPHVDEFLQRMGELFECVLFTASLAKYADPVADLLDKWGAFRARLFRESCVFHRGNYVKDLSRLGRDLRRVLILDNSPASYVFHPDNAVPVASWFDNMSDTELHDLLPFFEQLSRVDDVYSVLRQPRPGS
Description: CTDSP1 inhibitors, concentration-response, biochemical, absorbance readout, ultra-high-throughput screen actives (AID 540297).

For test [6], the target named is DNA dC->dU-editing enzyme APOBEC-3G (Homo sapiens, UniProt Q9HC16).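 Further: Dose-response counterscreen measuring inhibition of APOBEC3G DNA deaminase activity, run while confirming APOBEC3A inhibitors.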
Chain of DNA dC->dU-editing enzyme APOBEC-3G (Q9HC16 whole entry): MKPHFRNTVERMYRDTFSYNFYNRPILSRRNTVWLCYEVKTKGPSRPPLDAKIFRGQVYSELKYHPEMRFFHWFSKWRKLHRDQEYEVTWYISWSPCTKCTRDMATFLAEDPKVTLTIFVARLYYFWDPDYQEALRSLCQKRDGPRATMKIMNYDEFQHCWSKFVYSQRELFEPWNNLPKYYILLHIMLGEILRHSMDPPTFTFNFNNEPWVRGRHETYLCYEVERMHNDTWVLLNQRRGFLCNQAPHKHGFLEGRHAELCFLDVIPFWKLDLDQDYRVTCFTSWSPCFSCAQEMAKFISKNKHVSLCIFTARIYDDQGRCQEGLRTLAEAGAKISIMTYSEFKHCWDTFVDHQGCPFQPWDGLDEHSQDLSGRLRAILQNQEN
The target in test [7] is DNA dC->dU-editing enzyme APOBEC-3A (Homo sapiens, UniProt P31941). Description: Dose Response confirmation of small molecule APOBEC3A DNA Deaminase Inhibitors via a fluorescence-based single-stranded DNA deaminase assay. [Related pubchem assays (depositor defined):AID493011, AID493024].
Chain of DNA dC->dU-editing enzyme APOBEC-3A (P31941 whole entry): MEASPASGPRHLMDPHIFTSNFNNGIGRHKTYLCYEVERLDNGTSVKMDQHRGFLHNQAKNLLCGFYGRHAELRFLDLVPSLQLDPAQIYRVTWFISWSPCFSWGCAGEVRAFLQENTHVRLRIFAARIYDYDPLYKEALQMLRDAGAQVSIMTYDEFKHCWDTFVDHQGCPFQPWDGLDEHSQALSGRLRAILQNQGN

Consider `C=CCNc1ncnc2c1[nH]c1ccc(C)cc12`, for which the IC50 on Coagulation factor XII was > 50 µM (inactive).

Consider `Fc1ccc(N=C(S)Nc2ccc(F)c(Cl)c2)cc1Cl`, for which, in test [1], the IC50 was 7.94 µM (active).

`CCOC(=O)N1CCN(C(=O)C2CCCN(c3ncnc4c3nc3n4CCCCC3)C2)CC1` (stereo not drawn): in [1], the IC50 is 12.9 µM (active).

`O=C(CSCc1ccc([N+](=O)[O-])cc1)N/N=C/c1cccnc1`: in test [2], the AC50 was > 380 µM (inactive). Further, the EC50 at Protein RecA was > 380 µM (inactive). Besides, the IC50 is 10.9 µM (active) in [3], > 20 µM (inactive) on Bcl-2-related protein A1 and 8.26 µM (active) in test [4].

For the compound `CC12CCC(C[N+](C)(C)C1)C2(C)C` (stereo not drawn), the figures for the 50% inhibitory concentration (IC50) in [5], in [6] and in test [7] were 5.62 µM (active), 4.71 µM (active) and 2.69 µM (active), respectively.

As for `COc1ccccc1/N=C/c1nc(-c2ccccc2)oc1OC(C)=O`, on Coagulation factor XII, the IC50 is 48.8 µM (active).

Consider `CCCc1nc(-c2cc3cc(C)ccc3[nH]c2=O)no1`, for which the IC50 in test [5] is 12.8 µM (active); in test [6] it was 2.41 µM (active); in test [7], 3.04 µM (active).

Turning to `Cc1cc(=O)oc2c1c(C)nn2-c1nn[nH]n1`, the IC50 is 4.36 µM (active) in test [6] and 1.76 µM (active) in test [7].

As to `CCC1=C/C(=C\c2ccc3c(c2)OCO3)C(=O)S1`, the IC50 on Coagulation factor XII is > 50 µM (inactive).
